Data set [1] concerns normal mononuclear hematopoietic cells (CD138−). Nature of the data set: Viability of primary patient samples (Annexin V, anti-CD138, flow cytometry). The data set is classed as cell-based. The following applies: 24 hours. The protocol:
(§1) Apoptosis was measured by staining cells treated with compounds of Formula I with annexin V-fluorescein isothiocyanate and propidium iodide (both from Biovision Research Products, Mountain View, Calif.) and flow cytometry according to manufacturer's instructions and as previously described [Blood. 2005, 105(10), 4043-4050]. Experiments were performed at least in duplicate and repeated at least twice (n=4-20 data points). Viable primary myeloma cells were identified by staining with phycoerythrin-conjugated mouse monoclonal anti-CD138 antibody (20 μL/[…] cells; Beckman Coulter, Brea, Calif.). The percentage of myeloma cells that were CD138 positive and annexin V negative after compounds of Formula (I) treatment compared with untreated samples was quantified as a marker of cell viability as previously described [Blood. 2007, 109(12), 5430-5438].
(§2) Effects of a representative of compounds of Formula I (the compound of Example 1) on the viability of primary malignant and normal hematopoietic cells isolated from patient samples was also studied. […] Viability of normal hematopoietic cells (CD138−) and myeloma cells (CD138+) were measured by flow cytometry with PE-labeled anti-CD138 and FITC-labeled Annexin V co-staining. […]

Data set [2] has as its system primary CD138+ myeloma cells. The description is as above. The data set is classed as cell-based, human. The following applies: 24 hours. The protocol: as §1, §2
The test system of data set [3] is standard panel of 12 tumor cell lines. Nature of the data set: Hollow fiber assay (HFA). The data set is classed as in vivo, mouse. The note with it: ip, 75 mg/kg/dose and 35.5 mg/kg/dose, QD x 4. The protocol: Hollow fibre assay in vivo pharmacodynamic studies were carried out. This in vivo animal model uses semi-permeable biocompatible fibres that are filled with cancer cells, heat-sealed and implanted surgically (s.c. or i.p.) in mice or rats, which can then be treated with chemotherapeutics. Many different cell lines from different tissue origins and cellular characteristics can be encapsulated within the fibres, providing a cost-effective screening method.
The Oncology Program Screening and Characterization Strategy group at NCI uses HFA, which provides quantitative indices of drug efficacy with minimal expenditures of time and materials. Thus, the HFA is being utilized as the initial in vivo experience for compounds of Formula I.
A total of 3 different tumor lines are prepared for each experiment so that each mouse receives 3 intraperitoneal implants (1 of each tumor line) and 3 subcutaneous implants (1 of each tumor line). A compound is considered for xenograft testing if it produces cell kill of any cell line at either dose level evaluated, or it has a combined ip+sc score of 20 or greater, a sc score of 8 or greater. […]
The compound of Example 1 was evaluated in an HFA assay via ip administration at two doses; a 75 mg/kg/dose and a 35.5 mg/kg/dose, QD […] 4. […]

The test system of the next data set is MM.1S tumor cells. Nature of the data set: Myeloma MM.1S mouse xenograft model. The data set is classed as in vivo. How it is done:
The mice were irradiated (200 rads) using a Co60 irradiator source. After 24 his, each mouse was inoculated subcutaneously with 5×10^6 MM.1S tumor cells in 0.1 ml PBS for tumor development. Treatments were started when the tumor volume reached 100 mm^3. Each treatment group consisted of 10 mice. The compound of Example 1 was administrated to the tumor-bearing mice according to a specific predetermined regimen.

Data set [4] has as its target purified beta proteasome subunits from Thermoplasma acidophilum; whole cell lysates from LP1 (Thermoplasma acidophilum, UniProt P28061). Nature of the data set: Enzymatic activity of purified proteasomes (FIG. 1). The following applies: compared to bortezomib. The data set is classed as biochemical, Thermoplasma acidophilum; human. How it is done:
Purified beta proteasome subunits from the archaebacteria Thermoplasma acidophilum (A) or whole cell lysates from the human myeloma cell line LP1 (B).
Increasing concentrations ([…]) of compounds of Formula (I) and bortezomib were incubated with […] purified beta subunits of proteasomes isolated from Thermoplasma acidophilum in assay buffer supplemented with 2 mM ATP. DMSO alone was used as a control. After 1 hour of incubation at 37° C., the Suc-Leu-Leu-Val-Tyr-AMC substrate was added at a final concentration of 40 μM and CT-L proteasome activity was measured as described above for tumor cell lysates.
Purified beta proteasome subunits from the archaebacteria Thermoplasma acidophilum (A) and whole cell lysates from the human myeloma cell line LP1 (B) were used in the study.

Another data set relates to LP1 myeloma cells. Nature of the data set: Combination assays: viability of myeloma LP1 cells (MTS, combination index). It is filed as cell-based, human. The protocol: To examine whether compounds of Formula I can be combined with other conventional and newer anti-multiple myeloma agents, such as dexamethasone and bortezomib, respectively, LP1 myeloma cells were treated for 72 hours with increasing concentrations of compounds of Formula I in combination with dexamethasone or bortezomib. After incubation, cell growth and viability was measured by the MTS assay. The combination index (CI) analysis, where a CI<1 indicates synergy between two drugs, a CI=1 indicates additivity, and a CI>1 indicates antagonism, was used to determine whether the cytotoxicity produced by the combinations with compounds of Formula I were synergistic, additive, or antagonistic.
The effects of combining these agents with a representative of compounds of Formula I i.e. the compound of Example 1 on the viability of myeloma LP1 cells in culture were assessed. LP1 cells were treated for 72 hours with increasing concentrations of the compound of Example 1 in combination with dexamethasone or bortezomib. After incubation, cell growth and viability was measured by the MTS assay.
The combination of the compound of Example 1 and bortezomib was synergistic with Combination Index values of 0.41, 0.46, and 0.88 at Fraction affected (Fa) levels of 0.39, 0.58, and 0.6, respectively (FIG. 2A).
The combination of the compound of Example 1 and dexamethasone was synergistic with Combination Index values of 0.41, 0.44, and 0.5 at Fraction affected levels of 0.43, 0.5, and 0.64, respectively (FIG. 2B).

[5] abbreviates: 100 mg/kg p.o, days 1, 3, 5/wk×4 wks.

A value given as a limit tells only on which side of the number the result lay.

Sequence of purified beta proteasome subunits from Thermoplasma acidophilum; whole cell lysates from LP1 (P28061 9-211): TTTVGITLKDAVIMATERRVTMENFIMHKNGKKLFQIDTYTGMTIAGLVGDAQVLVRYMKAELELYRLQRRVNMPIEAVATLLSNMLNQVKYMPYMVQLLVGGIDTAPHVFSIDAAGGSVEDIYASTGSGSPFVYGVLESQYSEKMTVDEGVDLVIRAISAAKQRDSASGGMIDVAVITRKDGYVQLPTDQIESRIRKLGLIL
Sequence of purified beta proteasome subunits from Thermoplasma acidophilum; whole cell lysates from LP1 (P25156 whole entry partner): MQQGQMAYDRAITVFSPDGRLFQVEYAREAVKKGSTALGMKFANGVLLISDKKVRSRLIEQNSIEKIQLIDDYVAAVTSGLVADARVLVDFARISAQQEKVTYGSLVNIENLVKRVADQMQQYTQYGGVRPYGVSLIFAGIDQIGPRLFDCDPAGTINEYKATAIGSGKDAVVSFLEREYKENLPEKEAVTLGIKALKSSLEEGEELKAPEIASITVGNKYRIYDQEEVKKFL

Take `Cc1ncc(C(=O)N[C@@H](COC(F)F)C(=O)N[C@@H](COC(F)F)C(=O)N[C@@H](Cc2ccccc2)C(=O)[C@@]2(C)CO2)s1` [Example 1, 2-methyl-thiazole-5-carboxylic acid ((S)-1-{(S)-1-[(S)-1-benzyl-2-((R)-2-methyloxiranyl)-2-oxo-ethylcarbamoyl]-2-difluoromethoxyethylcarbamoyl}-2-difluoromethoxyethyl)-amide]: the “LD50 normal mononuclear hematopoietic cells” value in data set [1] is more than 2.5 µM. For the same molecule, the “viability of primary CD138+ myeloma cells over CD138− normal hematopoietic cells” value in data set [2] (patient bone marrow or peripheral blood samples) is “selectively reduced the viability”. Moreover, in data set [2] (patient samples), the “cell death in the plasma cells of the myeloma patients” value is recorded as “nanomolar concentrations”. Also, the “cell killing in hollow fiber assay” value in data set [3] is reported as “produced cell killing of multiple cell lines”. For the same molecule, the “antitumor activity vs. control” value with MM.1S tumor cells (50 mg/kg p.o, qd×28 days) is reported as “statically significant antitumor activity”; in the data set on MM.1S tumor cells (setting [5]), “statically significant antitumor activity”. In addition, the “gross adverse effects including reductions in body weight or alterations in behaviour” value in the data set with MM.1S tumor cells (50 mg/kg p.o, qd×28 days) is recorded as “no observed gross adverse effects”; with MM.1S tumor cells (setting [5]), “no observed gross adverse effects”. The “effect on the enzymatic activity of purified proteasomes” value in data set [4] is “disrupts the ubiquitin-proteasome system”. Further, the “Combination Index” value is on record as 0.41 in the data set on LP1 myeloma cells (combination with bortezomib, Fraction affected 0.39, LP1, 72 hours); 0.46 in the data set on LP1 myeloma cells (combination with bortezomib, Fraction affected 0.58, LP1, 72 hours); 0.88 in the data set with LP1 myeloma cells (combination with bortezomib, Fraction affected 0.6, LP1, 72 hours); 0.41 in the data set with LP1 myeloma cells (combination with dexamethasone, Fraction affected 0.43, LP1, 72 hours); 0.44 in the data set on LP1 myeloma cells (combination with dexamethasone, Fraction affected 0.5, LP1, 72 hours); 0.5 with LP1 myeloma cells (combination with dexamethasone, Fraction affected 0.64, LP1, 72 hours).
